Assay results reported in US20090012179A1, “Use of Tyrphostins to Stimulate Neurite Outgrowth” (priority 2004, published 2009).
“Also recorded” adds a separate entry of the source.

Assays:
ERK [1] = test: ERK activation in SH-SY5Y cells; type: cell-based, human
Protocol: SH-SY5Y cells are treated with A9, NGF ([…]), or EGF (10 ng/ml) for different durations, including 5, 15, 30, 60, and 120 minutes, to generate time-response curves for A9, NGF, and EGF. The level of ERK activation is measured by immunoblotting for the active (phosphorylated) ERK. The time-point with the maximum ERK response determined above is chosen for immunoprecipitation studies to assess the activation of PI3K, PDK1, and PKB/Akt. Cells are lysed with RIPA^+ buffer and precipitated with polyclonal antibodies for PI3K, PDK1, and PKB/Akt, and then the presence of p-Tyr in the precipitates will be determined by immunoblotting with the specific p-Tyr monoclonal antibody 4G10 (Upstate).

[2] = system: primary rat SNc neuron cultures; test: [3H]Dopamine uptake in primary SNc neuron cultures; type: cell-based; settings: A9 for six days
Protocol: Primary cultures of rat embryonic SNc neuron cultures were grown on treated 12-well plates (for dopamine uptake) or coverslips (for neuroprotection) for 10 days as described in the Examples section. In FIG. 6A, the neurons were treated with different concentrations of A9 for 6 days before dopamine uptake was measured. Data=mean±SD (n=3). In FIG. 6B, MPP^+ (25 μM) was added into medium on day 11, while A9 was added either on day 10 (pretreatment) or day 12 (after MPP^+). Half of the medium was changed with fresh A9 on day 14. The neurons were fixed on day 16 and stained for tyrosine hydroxylase (TH, green) and total-ERK (red). Images were captured with fluorescence microscopy at magnification×100.
Dopamine uptake: NS20Y cells or neuron cultures are plated on poly-L-lysine (for NS20Y) or poly-D-lysine (for neuron culture)-coated 24-well plates and grown to confluence. The medium is decanted and cells are prepared for [^3H]dopamine uptake. Cells are incubated in the presence or absence of mazindol (10 μM to determine nonspecific uptake) for at least 10 minutes prior to addition of [^3H]dopamine. The uptake assay (final volume 0.5 ml) is initiated by the addition of 50 nM [^3H]dopamine and 2 μM dopamine in Krebs-HEPES buffer. […] Radioactivity remaining in each well is determined using liquid scintillation spectrometry. […]

SJL mice with EAE = test: Axonal damage in SJL mice with EAE, SMI312/SMI32 immunohistochemistry of spinal cord; type: in vivo, mouse
Protocol: A9 (or the vehicle control) was administered orally.
Following treatment, the thoracic spinal cords were fixed in 4% PFA, embodied in paraffin and sectioned for IHC.

ERK [3] = test: ERK activation in primary rat neostriatal neuron cultures; type: cell-based
Protocol: Primary Neuronal Cultures: The substantia nigra or striatal region is dissected from 4 day-old Sprague-Dawley rats and incubated in minimum essential medium (MEM) containing 20 U/ml papain for 2 hours at 37° C. The tissue is then triturated using fire-polished Pasteur pipettes in MEM supplemented with 10% fetal bovine serum, 0.45% glucose, […] insulin, 0.5 mM glutamine, 100 U/ml penicillin, and 100 μg/ml streptomycin. Cells are plated on 18 mm diameter poly-D-lysine-coated glass coverslips (Fisher 12-545-84 18cir-1D) at a density of 75,000 cells per coverslip for immunofluorescence imaging or in 12-well or 6-well tissue culture plates for immunoblotting studies. […]
Cell stimulation, immunoblotting, and immunoprecipitation: Cells or neurons are grown in 6-well or 12-well plates to 80-90% confluence. […] After centrifugation (14,000×g at 4° C. for 15 minutes), the supernatant is collected and the protein concentration is measured and adjusted using RIPA^+ buffer. […] The proteins are transferred to PVDF membrane (Millipore), detected with the primary antibodies (including anti-active ERK; anti-p-Tyr clone 4G10, Upstate; anti-TH; anti-DAT, sigma, anti-β-tubulin, etc.) and visualized with the SuperSignal™ West Pico chemiluminescent kit (Pierce Biotechnology, Rockford, Ill.). The intensity of bands is quantified using ImageQuant™ 5.2 (Amersham). […]

ERK [4] = test: ERK activation in HEK293 cells; type: cell-based, human
Protocol: Cell stimulation, immunoblotting, and immunoprecipitation: Cells or neurons are grown in 6-well or 12-well plates to 80-90% confluence. The cells are starved in serum-free DMEM overnight, and then incubated with receptor agonists at 37° C. for the indicated durations. In some experiments, signaling inhibitors are added 45 minutes before simulation. Incubation is terminated by placing the tissue culture cluster on ice and rapidly aspirating the medium, followed by the addition of ice-cold RIPA^+ buffer (50 mM Tris-HCl, pH 7.5, 150 mM NaCl, 1% NP-40, 0.5% deoxycholate, 0.1% SDS, 1 mM NaVO3, and protease inhibitor (Calbiochem, San Diego, Calif.)) and incubation for 15 minutes with shaking. After centrifugation (14,000×g at 4° C. for 15 minutes), the supernatant is collected and the protein concentration is measured and adjusted using RIPA^+ buffer. […] The proteins are transferred to PVDF membrane (Millipore), detected with the primary antibodies (including anti-active ERK; anti-p-Tyr clone 4G10, Upstate; anti-TH; anti-DAT, sigma, anti-β-tubulin, etc.) and visualized with the SuperSignal™ West Pico chemiluminescent kit (Pierce Biotechnology, Rockford, Ill.). The intensity of bands is quantified using ImageQuant™ 5.2 (Amersham). […]
It was determined that A9 could activate ERK while characterizing the transactivation of receptor tyrosine kinases by the dopamine D2 receptor.

[5] = Golomb et al. 1996; cited from earlier work

CC(C)(C)c1cc(C=C(C#N)C#N)cc(C(C)(C)C)c1O [A9, tyrphostin A9]
ERK activation in SH-SY5Y, indicated by use of MEK inhibitor PD98059 (ERK [1]): ERK is activated | Concentration at which maximum dopamine uptake response is reached [2]: 100 nM | Dopamine uptake [2]: increased dopamine uptake in primary rat SNc neuron cultures in a concentration-dependent manner; also recorded: stimulated dopamine uptake increase | Damaged axons, SMI32 staining (SJL mice with EAE; SJL mice with EAE, 1 μg A9 orally): effectively reduced; also recorded: reduces the presence of damaged axons | Axonal damage in the spinal cord (SJL mice with EAE; SJL mice, EAE induced with PLP139-151, 1 μg A9 orally): reduced the axonal damage | Ability to cross the blood brain barrier (SJL mice with EAE; after oral administration, inferred from CNS effect in EAE mice): has the ability to cross the blood brain barrier | A9-stimulated ERK activation (ERK [3]): also observed | ERK activation (ERK [4]): but not in HEK293 | D2 receptor-induced activation of ERK (ERK [4]; A9 pretreatment): prevented D2 receptor-induced activation of ERK | Side effects [5]: has not been shown to produce obvious side effects
